Experimental data: US10544112B2, “Identification of ebsulfur analogues with broad-spectrum antifungal activity” (priority 2017, dated 2020)
In brackets after ≈: the same amount, converted by molar mass.

Columns and labels:
[1] = system: Candida albicans ATCC 10231 (strain A); experiment: Antifungal MIC determination (CLSI M27-A3, 96-well); type: cell-based; conditions: strain A; compounds 1-4n and AmB; 48 h, RPMI 1640
Description: (§1) Fungal MIC determination experiments were performed using untreated 96-well plates (Corning). Cells were counted either by using a hemocytometer (Hausser Scientific, Horsham, Pa., USA) or by measuring optical density at attenuance of 600 nm (OD600) by using a Genesys 20 spectrophotometer (Thermo Scientific, Waltham, Mass., USA). Spectrophotometric and colorimetric measurements in 96-well plates were performed using a SpectraMax M5 spectrometer (Molecular Devices, Sunnyvale, Calif., USA).
(§2) Yeast strains Candida albicans ATCC 10231 (strain A), C. albicans ATCC 64124 (strain B), and C. albicans ATCC MYA-2876(S) (strain C) were kindly provided by Dr. Jon Y. Takemoto (Utah State University, Logan, UT, USA). C. albicans ATCC MYA-90819(R) (strain D), C. albicans ATCC MYA-2310(S) (strain E), C. albicans ATCC 1237(R) (strain F), C. albicans ATCC MYA-1003(R) (strain G), Candida glabrata ATCC 2001 (strain H), Candida krusei ATCC 6258 (strain I), and Candida parapsilosis ATCC 22019 (strain J) were obtained from the American Type Culture Collection (ATCC, Manassas, Va., USA). The (S) and (R) indicate that ATCC reports these strains to be susceptible (S) and resistant (R) to ITC and FLC. The filamentous fungal strains Aspergillus flavus ATCC MYA-3631 (strain K), and Aspergillus terreus ATCC MYA-3633 (strain M) were also obtained from the American Type Culture Collection (ATCC, Manassas, Va., USA). Aspergillus nidulans ATCC 38163 (strain L) was kindly provided by Dr. Jon S. Thorson (University of Kentucky, Lexington, Ky., USA), respectively. Yeast strains were cultured at 35° C. Filamentous fungal strains were cultured at 25° C. and the spores were harvested. All fungal strains were cultured in RPMI 1640 medium (catalog # R6504, Sigma-Aldrich Chemical Co., St. Louis, Mo.) buffered to pH 7.0 with 0.165 M morpholinepropanesulfonic acid (MOPS) buffer (Sigma-Aldrich Chemical Co.).
(§3) The MIC values against fungal strains were determined based on a previously published protocol. MIC values for ebsulfur (2a) analogues against fungal cells were evaluated in 96-well plates as described in the CLSI document M27-A3 with minor modifications. […] Therefore, potato dextrose broth (PDB) was used to grow the yeast inocula of all strains tested, which were later diluted in RPMI 1640 medium to perform determination of MIC values. […] The tested compounds (10 mg/mL) were diluted to the working stocks (500 μg/mL) by addition of DMSO. Two-fold serial dilution of the working stocks was prepared by addition of RPMI 1640 medium (100 μL) and cell suspension (100 μL) to 96-well microtiter plate to achieve final drug and inoculum concentrations ranging from 12.5-0.02 μg/mL and 5×10^3 CFU/mL, respectively. Plates were incubated for 48 h at 35° C. […]

[2] = system: Candida parapsilosis ATCC 22019 (strain J); experiment: as above; type: cell-based; conditions: strain J; for MIC-0: compounds 1-4n and AmB, 48 h, RPMI 1640
Description: as §1, §2, §3

[3] = system: Candida glabrata ATCC 2001 (strain H); experiment: as above; type: cell-based; conditions: strain H; for MIC-0: compounds 1-4n and AmB, 48 h, RPMI 1640
Description: as §1, §2, §3

[4] = system: Candida krusei ATCC 6258 (strain I); experiment: as above; type: cell-based; conditions: strain I; for MIC-0: compounds 1-4n and AmB, 48 h, RPMI 1640
Description: as §1, §2, §3

[5] = system: Aspergillus terreus ATCC MYA-3633 (strain M); experiment: Antifungal MIC determination, filamentous fungi spores; type: cell-based; conditions: strain M, all compounds, spores
Description: as §1, §2
(§4) The MIC values against fungal strains were determined based on a previously published protocol. MIC values for ebsulfur (2a) analogues against fungal cells were evaluated in 96-well plates as described in the CLSI document M27-A3 with minor modifications. […] Therefore, potato dextrose broth (PDB) was used to grow the yeast inocula of all strains tested, which were later diluted in RPMI 1640 medium to perform determination of MIC values. […] The tested compounds (10 mg/mL) were diluted to the working stocks (500 μg/mL) by addition of DMSO. Two-fold serial dilution of the working stocks was prepared by addition of RPMI 1640 medium (100 μL) and cell suspension (100 μL) to 96-well microtiter plate to achieve final drug and inoculum concentrations ranging from 12.5-0.02 μg/mL and 5×10^3 CFU/mL, respectively. Plates were incubated for 48 h at 35° C.
(§5) MIC assays for the spore-forming filamentous fungi, such as strain A. flavus ATCC MYA-3631 (strain K), were performed in a similar fashion. The filamentous fungal strains were first cultured at 25° C. on potato dextrose agar (PDA) plates for 3-5 days or until confluent. Spores were collected by washing the surface of the agar plates with dd H2O (5 mL) and then isolated the spores by gravity filtration (the spores are H2O soluble). […] Researchers working with spores should wear a facemask to prevent spore inhalation.

[6] = system: Aspergillus nidulans ATCC 38163 (strain L); experiment: as above; type: cell-based; conditions: strain L; spores
Description: as §1, §2, §4, §5

[7] = system: Aspergillus flavus ATCC MYA-3631 (strain K); experiment: as above; type: cell-based; conditions: all compounds
Description: as §1, §2, §4, §5

[8] = system: C. albicans ATCC MYA-1003(R) (strain G); experiment: microbe, parasite or virus in culture; type: cell-based, Candida albicans; conditions: strain G; compounds 1-4n and AmB; 48 h, RPMI 1640
Description: as §1, §2, §3

[9] = system: C. albicans ATCC 90819(R) (strain D); experiment: microbe, parasite or virus in culture; type: cell-based, Candida albicans; conditions: strain D; compounds 1-4n and AmB; 48 h, RPMI 1640
Description: as §1, §2, §3

[10] = system: C. albicans ATCC MYA-1237(R) (strain F); experiment: microbe, parasite or virus in culture; type: cell-based, Candida albicans; conditions: strain F; compounds 1-4n and AmB; 48 h, RPMI 1640
Description: as §1, §2, §3

[11] = system: C. albicans ATCC 64124 (strain B); experiment: microbe, parasite or virus in culture; type: cell-based, Candida albicans; conditions: strain B; compounds 1-4n and AmB; 48 h, RPMI 1640
Description: as §1, §2, §3

[12] = system: C. albicans ATCC MYA-2876(S) (strain C); experiment: Antifungal MIC determination (CLSI M27-A3, 96-well); type: cell-based, Candida albicans; conditions: strain C; compounds 1-4n and AmB; 48 h, RPMI 1640
Description: as §1, §2, §3

[13] = system: C. albicans ATCC MYA-2310(S) (strain E); experiment: as above; type: cell-based, Candida albicans; conditions: strain E; compounds 1-4n and AmB; 48 h, RPMI 1640
Description: as §1, §2, §3

| Structure (SMILES) | MIC-0 [1] [mg/L] | MIC-0 [2] [mg/L] | MIC-0 [3] [mg/L] | MIC-0 [4] [mg/L] | MIC-0 [5] [mg/L] | MIC-0 [6] [mg/L] | MIC-0 [7] [mg/L] | MIC-0 [8] [mg/L] | MIC-0 [9] [mg/L] | MIC-0 [10] [mg/L] | MIC-0 [11] [mg/L] | MIC-0 [12] [mg/L] | MIC-0 [13] [mg/L] | MIC ([2]; Lodderomyces parapsilosis, ATCC22019, azoles, read-out: MIC-2) [mg/L] | MIC ([3]; Nakaseomyces glabratus, ATCC2001, azoles, read-out: MIC-2) [mg/L] | MIC ([4]; Pichia kudriavzevii, ATCC6258, azoles, read-out: MIC-2) [mg/L] | MIC ([5]; Aspergillus terreus, read-out: MIC-0) [mg/L] | MIC ([7]; Aspergillus flavus, read-out: MIC-0) [mg/L] |
| --- | --- | --- | --- | --- | --- | --- | --- | --- | --- | --- | --- | --- | --- | --- | --- | --- | --- | --- |
| O=c1c2ccccc2sn1-c1cccc2ccccc12 [Compound 2l] | 6.25 (≈ 22.5 µM) | 12.5 (≈ 45.1 µM) | 12.5 (≈ 45.1 µM) | 6.25 (≈ 22.5 µM) | 12.5 (≈ 45.1 µM) | 12.5 (≈ 45.1 µM) | 12.5 (≈ 45.1 µM) | 6.25 (≈ 22.5 µM) | 3.13 (≈ 11.3 µM) | >12.5 | 12.5 (≈ 45.1 µM) | >12.5 | >12.5 |  |  |  |  |  |
| O=c1c2ccccc2sn1C1CCCCCC1 [Compound 3m] | 1.56 (≈ 6.31 µM) | 3.13 (≈ 12.7 µM) | 3.13 (≈ 12.7 µM) | 0.39 (≈ 1.58 µM) | 0.20 (≈ 0.809 µM) | 0.20 (≈ 0.809 µM) | 0.10 (≈ 0.404 µM) | 3.13 (≈ 12.7 µM) | 1.56 (≈ 6.31 µM) | 1.56 (≈ 6.31 µM) | 1.56 (≈ 6.31 µM) | 3.13 (≈ 12.7 µM) | 3.13 (≈ 12.7 µM) |  |  |  |  |  |
| COc1cc(OC)cc(-n2sc3ccccc3c2=O)c1 [Compound 2k] | 12.5 (≈ 43.5 µM) | 6.25 (≈ 21.8 µM) | 6.25 (≈ 21.8 µM) | 6.25 (≈ 21.8 µM) | 6.25 (≈ 21.8 µM) | 6.25 (≈ 21.8 µM) | 6.25 (≈ 21.8 µM) | 12.5 (≈ 43.5 µM) | 3.13 (≈ 10.9 µM) | 12.5 (≈ 43.5 µM) | 12.5 (≈ 43.5 µM) | 3.13 (≈ 10.9 µM) | 1.56 (≈ 5.43 µM) |  |  |  |  |  |
| CCCCCCCCn1sc2ccccc2c1=O [Compound 3c] | 6.25 (≈ 23.7 µM) | 0.78 (≈ 2.96 µM) | 1.56 (≈ 5.92 µM) | 1.56 (≈ 5.92 µM) | ≤0.02 | ≤0.02 | ≤0.02 | 1.56 (≈ 5.92 µM) | 3.13 (≈ 11.9 µM) | 1.56 (≈ 5.92 µM) | 1.56 (≈ 5.92 µM) | 6.25 (≈ 23.7 µM) | 1.56 (≈ 5.92 µM) |  |  |  |  |  |
| CC(C)c1cccc(-n2sc3ccccc3c2=O)c1 [Compound 2h] | 3.13 (≈ 11.6 µM) | 3.13 (≈ 11.6 µM) | 3.13 (≈ 11.6 µM) | 3.13 (≈ 11.6 µM) | 12.5 (≈ 46.4 µM) | 12.5 (≈ 46.4 µM) | 6.25 (≈ 23.2 µM) | 3.13 (≈ 11.6 µM) | 3.13 (≈ 11.6 µM) | 3.13 (≈ 11.6 µM) | 3.13 (≈ 11.6 µM) | 3.13 (≈ 11.6 µM) | 3.13 (≈ 11.6 µM) |  |  |  |  |  |
| CCC(C)n1ncn(-c2ccc(N3CCN(c4ccc(OCC5COC(Cn6cncn6)(c6ccc(Cl)cc6Cl)O5)cc4)CC3)cc2)c1=O (stereo not shown) [ITC, itraconazole, reference compound] |  |  |  |  |  |  |  |  |  |  |  |  |  | 0.12 (≈ 0.17 µM) | 7.8 (≈ 11.1 µM) | 0.48 (≈ 0.68 µM) | 0.975 (≈ 1.38 µM) | 0.48 (≈ 0.68 µM) |
